According to patent publication US20060134197A1, “Method of reducing unpleasant taste and/or unpleasant odor” (priority 2002, published 2006):

Key:
[1] = Inhibiting the production of amines from heated minced mackerel (headspace GC); conditions: minced mackerel with 5% saccharide solution; for Relative rate of inhibiting the production of dimethylamine / Relative rate of inhibiting the production of trimethylamine: headspace gas; for Relative rate of inhibiting the production of total amine: trimethylamine plus dimethylamine
Experimental: (§1) Five grams of minced mackerel, prepared by mincing commercialized mackerel without head part, internal organs and bone with a mincer to homogeneity, was placed in a 20-ml vial, and admixed with 5 ml of an aqueous solution containing on a dry solid basis 5% of “TREHA®”, a food grade hydrous α,α-trehalose commercialized by Hayashibara Biochemical laboratories, Inc., Okayama, Japan (purity 99.0% or more), sucrose (a commercialized granulated sugar), or a syrupy saccharide mixture containing saccharide derivatives of α,α-trehalose prepared in Example 1. The resulting vials were sealed with a butyl gum cap to prepare test samples. As a control, a vial containing 5 g of the minced mackerel and 5 ml of deionized water was sealed with a butyl gum cap for a control sample. These samples were heated in boiled water for 15 minutes, cooled in running water, and heated at 80° C. for five minutes. The resulting headspace gas was taken from each of the vials and allowed to measure the contents of amines, hydrogen sulfide and aldehydes.
Measurement of the content of amines was carried out by subjecting 2 ml of the headspace gas to analysis by GC-14B gas chromatography, a hydrogen flame ionizing detector commercialized by Shimazu Co., Ltd., Kyoto, Japan, with flowing helium gas as a carrier gas at a flow rate of 1 ml/minute, and using DB-5 capillary column, 30 m in length and 0.25 mm in internal diameter (df=0.25 μm, sprit rate 1/30), commercialized by J & W Company, with an increasing column temperature from 40° C. to 250° C. at a rate of 5° C./minute. The amount of total amine was calculated by totalizing the amount of trimethylamine and dimethylamine.
(§2) The values of the production of amines, hydrogen sulfide and aldehydes of each test sample were compared with the value of control defined as 100 to calculate the relative values thereof. And then, the relative rates of inhibiting the production of amines, hydrogen sulfide and aldehydes were respectively calculated by 100 minus each of the relative values.

[2] = Inhibiting the production of aldehydes from heated minced mackerel (headspace GC); conditions: minced mackerel with 5% saccharide solution; for Relative rate of inhibiting the production of acetaldehyde / Relative rate of inhibiting the production of butanal / Relative rate of inhibiting the production of decanal / Relative rate of inhibiting the production of heptanal / Relative rate of inhibiting the production of hexanal / Relative rate of inhibiting the production of nonanal / Relative rate of inhibiting the production of octanal / Relative rate of inhibiting the production of pentanal / Relative rate of inhibiting the production of propanal: headspace gas; for Relative rate of inhibiting the production of total aldehydes: sum of nine aldehydes
Experimental: as §1
Measurement of the content of aldehydes was carried out by subjecting 2 ml of the headspace gas to analysis by GC-14B gas chromatography, a hydrogen flame ionizing detector commercialized by Shimazu co., Ltd., Kyoto, Japan, with flowing helium gas as a carrier gas in 1 ml/minute, and using TC-FFAP capillary column, 30min length and 0.52 mm in internal diameter (df=1 μm, sprit rate 1/30), commercialized by GL Science Company, with an increasing column temperature from 40° C. to 250° C. at a rate of 5° C./minute.
as §2

[3] = Inhibiting the production of hydrogen sulfide from heated minced mackerel; conditions: minced mackerel with 5% saccharide solution, headspace gas
Experimental: Five grams of minced mackerel, prepared by mincing commercialized mackerel without head part, internal organs and bone with a mincer to homogeneity, was placed in a 20-ml vial, and admixed with 5 ml of an aqueous solution containing on a dry solid basis 5% of “TREHA®”, a food grade hydrous α,α-trehalose commercialized by Hayashibara Biochemical laboratories, Inc., Okayama, Japan (purity 99.0% or more), sucrose (a commercialized granulated sugar), or a syrupy saccharide mixture containing saccharide derivatives of α,α-trehalose prepared in Example 1. The resulting vials were sealed with a butyl gum cap to prepare test samples. As a control, a vial containing 5 g of the minced mackerel and 5 ml of deionized water was sealed with a butyl gum cap for a control sample. […]
Similarly as in Experiment 4, the content of hydrogen sulfide was measured using 10 ml of a headspace gas by “GASTECH No. 4 LT”, a hydrogen sulfide detector commercialized by GL Science Corporation, under an aspiration time of one minute.
as §2

[4] = Inhibiting the production of hydrogen sulfide from chicken egg due to heat-decomposition; conditions: 10 g egg solution and 5 g saccharide in 50 ml, pH 7.0; 80° C. for 60 minutes; 100 minus relative value, control defined as 100
Description: Ten grams of an egg solution prepared by mixing a commercialized chicken egg with an equal weight of deionized water, and on a dry solid basis 5 g of a precisely measured saccharide sample; i.e. hydrous crystalline α,α-trehalose (food grade, purity 97.0% or more, commercialized by Hayashibara Biochemical Laboratories, Inc., Okayama, Japan), sucrose (a commercialized granulated sugar), a syrup containing saccharide derivatives of α,α-trehalose prepared in the following Example 1, or a syrup containing saccharide derivatives of α,α-trehalose prepared in the following Example 6 (hereinafter, it is called as “hydrogenated syrup containing saccharide derivatives containing α,α-trehalose”); were placed in a 50-ml volume measuring flask, and admixed with 5 ml of 500 mM phosphate buffer (pH 7.0) and deionized water to give a final volume of 50 ml. As a control, 10 g of an egg solution was admixed with deionized water to give a final volume of 50 ml. Five milliliters of each of the samples was placed into a 20-ml volume vial, sealed with a butyl gum cap, and kept at 80° C. for 60 minutes in an incubator. Hydrogen sulfide contained in 10 ml of the resulting headspace gas was measured by “[…] […] And then, the relative rate of inhibiting the production of hydrogen sulfide was calculated by 100 minus the relative value.

SMILES | Relative rate of inhibiting the production of dimethylamine [1] | Relative rate of inhibiting the production of trimethylamine [1] | Relative rate of inhibiting the production of total amine [1] | Relative rate of inhibiting the production of acetaldehyde [2] | Relative rate of inhibiting the production of butanal [2] | Relative rate of inhibiting the production of decanal [2] | Relative rate of inhibiting the production of heptanal [2] | Relative rate of inhibiting the production of hexanal [2] | Relative rate of inhibiting the production of nonanal [2] | Relative rate of inhibiting the production of octanal [2] | Relative rate of inhibiting the production of pentanal [2] | Relative rate of inhibiting the production of propanal [2] | Relative rate of inhibiting the production of total aldehydes [2] | Relative rate of inhibiting the production of hydrogen sulfide [3] | Relative rate of inhibiting the production of hydrogen sulfide [4]
OC[C@H]1O[C@@](CO)(O[C@H]2O[C@H](CO)[C@@H](O)[C@H](O)[C@H]2O)[C@@H](O)[C@@H]1O [Sucrose, sucrose] | −34 | 12 | −8 | 13 | −13 | 57 | 54 | 33 | −54 | 43 | −15 | 32 | 20 | 12 | 14
OC[C@H]1O[C@H](O[C@H]2O[C@H](CO)[C@@H](O)[C@H](O)[C@H]2O)[C@H](O)[C@@H](O)[C@@H]1O [α,α-Trehalose, α,α-trehalose] | 44 | 58 | 52 | 73 | 100 | 76 | 88 | 93 | 100 | 100 | 83 | 98 | 80 | 26 | 30
